{
  "source": "patent US20170233491A1",
  "about": "(Merrimack Pharmaceuticals, Inc., priority 2016, published 2017)",
  "key": {"[1]": {"molecular_target": "receptor complexes containing IGF-1R and ErbB3 (Homo sapiens, UniProt P08069+P21860)", "sequence (P08069 31-736 limits assumed)": "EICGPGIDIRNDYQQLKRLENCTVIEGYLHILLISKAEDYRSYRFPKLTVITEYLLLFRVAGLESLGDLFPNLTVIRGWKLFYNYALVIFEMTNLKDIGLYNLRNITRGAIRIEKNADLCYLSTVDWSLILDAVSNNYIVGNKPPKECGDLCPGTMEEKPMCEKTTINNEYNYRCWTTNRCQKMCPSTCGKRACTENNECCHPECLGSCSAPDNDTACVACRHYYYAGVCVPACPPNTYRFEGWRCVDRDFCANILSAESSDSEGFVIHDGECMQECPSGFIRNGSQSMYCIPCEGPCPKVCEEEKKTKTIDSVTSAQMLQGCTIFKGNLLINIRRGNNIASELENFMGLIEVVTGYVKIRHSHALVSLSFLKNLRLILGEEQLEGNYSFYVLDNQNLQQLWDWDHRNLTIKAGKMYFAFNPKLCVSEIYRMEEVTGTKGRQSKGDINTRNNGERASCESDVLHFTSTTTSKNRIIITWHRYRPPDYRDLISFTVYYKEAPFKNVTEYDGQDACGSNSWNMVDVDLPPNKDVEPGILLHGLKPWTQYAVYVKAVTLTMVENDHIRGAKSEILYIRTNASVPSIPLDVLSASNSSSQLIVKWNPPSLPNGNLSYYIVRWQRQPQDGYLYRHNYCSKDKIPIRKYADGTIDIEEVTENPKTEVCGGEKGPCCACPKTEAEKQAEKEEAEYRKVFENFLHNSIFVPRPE", "sequence (P08069 741-1367 limits assumed)": "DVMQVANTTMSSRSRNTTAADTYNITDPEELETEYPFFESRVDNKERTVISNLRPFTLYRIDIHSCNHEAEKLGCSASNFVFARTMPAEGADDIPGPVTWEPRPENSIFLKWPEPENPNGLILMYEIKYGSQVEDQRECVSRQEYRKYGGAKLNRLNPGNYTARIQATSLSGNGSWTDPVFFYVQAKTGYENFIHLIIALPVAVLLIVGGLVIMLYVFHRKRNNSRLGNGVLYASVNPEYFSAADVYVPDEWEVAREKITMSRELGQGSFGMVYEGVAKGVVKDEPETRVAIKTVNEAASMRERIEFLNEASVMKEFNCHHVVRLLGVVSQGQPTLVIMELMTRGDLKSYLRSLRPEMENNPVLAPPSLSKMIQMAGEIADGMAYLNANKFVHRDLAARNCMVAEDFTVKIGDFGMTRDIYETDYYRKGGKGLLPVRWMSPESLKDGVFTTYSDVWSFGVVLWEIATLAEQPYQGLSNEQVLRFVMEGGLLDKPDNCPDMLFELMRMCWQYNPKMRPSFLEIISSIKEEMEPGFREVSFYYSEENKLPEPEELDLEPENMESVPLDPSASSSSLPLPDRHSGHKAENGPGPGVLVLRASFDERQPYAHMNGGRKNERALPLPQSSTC", "sequence (P21860 20-1342)": "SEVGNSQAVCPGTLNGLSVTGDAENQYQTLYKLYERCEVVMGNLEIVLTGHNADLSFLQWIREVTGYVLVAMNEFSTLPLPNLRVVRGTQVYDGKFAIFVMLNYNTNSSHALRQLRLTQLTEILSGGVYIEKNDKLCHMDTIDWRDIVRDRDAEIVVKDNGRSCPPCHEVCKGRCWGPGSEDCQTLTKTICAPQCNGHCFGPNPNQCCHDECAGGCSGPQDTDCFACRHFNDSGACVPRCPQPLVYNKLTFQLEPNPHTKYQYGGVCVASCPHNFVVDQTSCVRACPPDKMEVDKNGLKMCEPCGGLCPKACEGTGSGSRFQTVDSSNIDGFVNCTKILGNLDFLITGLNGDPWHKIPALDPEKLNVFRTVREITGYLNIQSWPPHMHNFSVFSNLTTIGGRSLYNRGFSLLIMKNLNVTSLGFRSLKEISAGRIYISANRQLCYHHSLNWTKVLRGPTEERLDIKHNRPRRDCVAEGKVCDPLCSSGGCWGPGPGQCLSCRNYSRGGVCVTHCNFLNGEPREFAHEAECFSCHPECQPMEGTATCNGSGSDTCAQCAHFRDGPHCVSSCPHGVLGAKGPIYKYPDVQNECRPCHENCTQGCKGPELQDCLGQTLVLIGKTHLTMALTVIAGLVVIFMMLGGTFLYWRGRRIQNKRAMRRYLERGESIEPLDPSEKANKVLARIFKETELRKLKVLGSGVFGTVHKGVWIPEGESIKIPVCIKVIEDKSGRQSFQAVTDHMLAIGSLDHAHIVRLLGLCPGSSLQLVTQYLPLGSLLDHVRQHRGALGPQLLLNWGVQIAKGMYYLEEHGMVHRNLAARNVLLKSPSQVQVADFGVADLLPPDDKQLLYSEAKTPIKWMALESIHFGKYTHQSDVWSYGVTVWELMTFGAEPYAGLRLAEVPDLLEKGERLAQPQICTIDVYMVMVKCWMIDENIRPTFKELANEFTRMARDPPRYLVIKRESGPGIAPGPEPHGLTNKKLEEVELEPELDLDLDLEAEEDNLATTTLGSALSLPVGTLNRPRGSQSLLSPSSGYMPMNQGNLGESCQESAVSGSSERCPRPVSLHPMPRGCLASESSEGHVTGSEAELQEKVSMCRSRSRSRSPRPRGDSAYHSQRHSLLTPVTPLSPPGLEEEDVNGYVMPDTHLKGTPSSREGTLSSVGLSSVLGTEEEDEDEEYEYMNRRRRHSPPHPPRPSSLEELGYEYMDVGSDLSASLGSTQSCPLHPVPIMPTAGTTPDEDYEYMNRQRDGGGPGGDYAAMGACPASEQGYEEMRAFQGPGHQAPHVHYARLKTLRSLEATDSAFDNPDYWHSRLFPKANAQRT", "conditions": "including heterodimers with insulin receptor and with ErbB2; cited from earlier work"}, "[2]": {"test_system": "preclinical models of pancreatic cancer", "conditions": "combined with nab-paclitaxel and gemcitabine; cited from earlier work"}, "[3]": {"test_system": "IGF-1R and ErbB3 signaling", "conditions": "background description; cited from earlier work"}, "[4]": {"test_system": "IGF-1R and ErbB3 signaling", "assay": "growth factor-induced (IGF-1, heregulin) signaling in pancreatic cancer models", "format": "cell-based", "conditions": "preclinical research"}, "pancreatic cancer models": {"test_system": "pancreatic cancer models", "assay": "IGF-1- and HRG-mediated insensitivity to gemcitabine or paclitaxel", "format": "cell-based", "conditions": "preclinical research"}, "[5]": {"test_system": "preclinical models of pancreatic cancer", "assay": "preclinical models of pancreatic cancer, combination with nab-paclitaxel and gemcitabine", "format": "in vivo", "conditions": "KRAS mutant pancreatic cancer models"}, "[6]": {"conditions": "Phase 1 study; cited from earlier work"}, "[7]": {"test_system": "HRG mRNA expression in CFPAC-1 cells", "assay": "HRG mRNA expression in CFPAC-1 cells after chemotherapy treatment", "format": "cell-based", "conditions": "FIG. 3", "experimental": "HRG mRNA expression was quantified after 24 h treatment with 1 mM of gemcitabine or 0.1 mM of paclitaxel, and normalized to housekeeping gene expression. “Vehicle”=drug-free vehicle control; “Gem”=gemcitabine treated; “Pac”=paclitaxel treated."}},
  "note": "Structures can show the parent of a compound that is named as a salt.",
  "data": [
    {"compound": "Istiratumab: recombinant fully human bispecific tetravalent antibody directed at IGF-1R and ErbB3; light chain SEQ ID NO: 1, heavy chain SEQ ID NO: 2", "values": [
      {"measurement": "degradation of receptor complexes containing IGF-1R and ErbB3", "setting": "[1]", "value": "induces degradation of receptor complexes containing IGF-1R and ErbB3"},
      {"measurement": "tumor regression", "setting": "[2]", "value": "significant tumor regression, including durable complete responses"},
      {"measurement": "IGF-1 and heregulin-induced signaling", "setting": "[3]", "value": "co-blocks IGF-1 and heregulin-induced signaling"},
      {"measurement": "growth factor-induced survival signaling", "setting": "[4]", "value": "inhibits growth factor-induced survival signaling"},
      {"measurement": "reversal of IGF-1- and HRG-mediated insensitivity to gemcitabine or paclitaxel", "setting": "pancreatic cancer models", "value": "reverses IGF-1- and HRG-mediated insensitivity to gemcitabine or paclitaxel"},
      {"measurement": "potentiation of anti-tumor activity of nab-paclitaxel/gemcitabine", "setting": "[5]", "value": "potentiates the anti-tumor activity of nab-paclitaxel/gemcitabine"},
      {"measurement": "safety and tolerability", "setting": "[6]", "value": "safe and tolerable"}
    ]},
    {"compound": "CC(=O)O[C@H]1C(=O)[C@@]2(C)[C@H]([C@H](OC(=O)c3ccccc3)[C@]3(O)C[C@H](OC(=O)[C@H](O)[C@@H](NC(=O)c4ccccc4)c4ccccc4)C(C)=C1C3(C)C)[C@]1(OC(C)=O)CO[C@@H]1C[C@@H]2O", "note": "[paclitaxel]", "values": [
      {"measurement": "HRG mRNA expression, normalized to housekeeping gene expression", "setting": "[7]; 24 h treatment with 0.1 mM of paclitaxel", "value": "increases HRG mRNA expression"}
    ]},
    {"compound": "Nc1ccn([C@@H]2O[C@H](CO)[C@@H](O)C2(F)F)c(=O)n1", "note": "[gemcitabine, 2′-deoxy-2′,2′-difluorocytidine monohydrochloride (-isomer)]", "values": [
      {"measurement": "HRG mRNA expression, normalized to housekeeping gene expression", "setting": "[7]; 24 h treatment with 1 mM of gemcitabine", "value": "increases HRG mRNA expression"}
    ]}
  ]
}
